Measurements: ChEMBL document CHEMBL1139986, “Synthesis and biodistribution of 8-iodo-11-(4-methylpiperazino)-5H-dibenzo[b,e][1,4]-diazepine: Iozapine” (Bioorg Med Chem Lett, 2007)

How the values were obtained:
Pancreas [1] = experiment: Biodistribution in BALB/c mouse pancreas at 7 to 8 KBq, iv after 60 mins; format: ADME, organism-based; conditions: in vivo, 1 h
Striatum [2] = experiment: Biodistribution in BALB/c mouse striatum at 7 to 8 KBq, iv after 60 mins; format: ADME, organism-based; conditions: in vivo, 1 h
Spleen [3] = experiment: Biodistribution in BALB/c mouse spleen at 7 to 8 KBq, iv after 120 mins; format: ADME, organism-based; conditions: in vivo, 2 h
Thyroid gland [4] = experiment: Biodistribution in BALB/c mouse thyroid at 7 to 8 KBq, iv after 15 mins; format: ADME, organism-based; conditions: in vivo, 0.25 h
Blood = experiment: Biodistribution in BALB/c mouse blood at 7 to 8 KBq, iv after 60 mins; format: ADME, organism-based; conditions: in vivo, 1 h
Stomach [5] = experiment: Biodistribution in BALB/c mouse stomach at 7 to 8 KBq, iv after 15 mins; format: ADME, organism-based; conditions: in vivo, 0.25 h
Pancreas [6] = experiment: Biodistribution in BALB/c mouse pancreas at 7 to 8 KBq, iv after 120 mins; format: ADME, organism-based; conditions: in vivo, 2 h
Stomach [7] = experiment: Biodistribution in BALB/c mouse stomach at 7 to 8 KBq, iv after 5 mins; format: ADME, organism-based; conditions: in vivo
Cerebellum [8] = experiment: Biodistribution in BALB/c mouse cerebellum at 7 to 8 KBq, iv after 15 mins; format: ADME, organism-based; conditions: in vivo, 0.25 h
Intestine [9] = experiment: Biodistribution in BALB/c mouse intestine at 7 to 8 KBq, iv after 5 mins; format: ADME, organism-based; conditions: in vivo
Spleen [10] = experiment: Biodistribution in BALB/c mouse spleen at 7 to 8 KBq, iv after 5 mins; format: ADME, organism-based; conditions: in vivo
Liver [11] = experiment: Biodistribution in BALB/c mouse liver at 7 to 8 KBq, iv after 15 mins; format: ADME, organism-based; conditions: in vivo, 0.25 h
Mus musculus [12] = experiment: Biodistribution in BALB/c mouse upper body at 7 to 8 KBq, iv after 120 mins; format: ADME, organism-based; conditions: in vivo, 2 h
Mus musculus [13] = experiment: Biodistribution in BALB/c mouse lower body at 7 to 8 KBq, iv after 5 mins; format: ADME, organism-based; conditions: in vivo
Hippocampus [14] = experiment: Biodistribution in BALB/c mouse hippocampus at 7 to 8 KBq, iv after 60 mins; format: ADME, organism-based; conditions: in vivo, 1 h
Cerebellum [15] = experiment: Biodistribution in BALB/c mouse cerebellum at 7 to 8 KBq, iv after 60 mins; format: ADME, organism-based; conditions: in vivo, 1 h
Hippocampus [16] = experiment: Biodistribution in BALB/c mouse hippocampus at 7 to 8 KBq, iv after 120 mins; format: ADME, organism-based; conditions: in vivo, 2 h
Medulla = experiment: Biodistribution in BALB/c mouse medulla at 7 to 8 KBq, iv after 5 mins; format: ADME, organism-based, Medulla of organ; conditions: in vivo
Mus musculus [17] = experiment: Biodistribution in BALB/c mouse lower body at 7 to 8 KBq, iv after 60 mins; format: ADME, organism-based; conditions: in vivo, 1 h
Heart [18] = experiment: Biodistribution in BALB/c mouse heart at 7 to 8 KBq, iv after 5 mins; format: ADME, organism-based; conditions: in vivo
Lung [19] = experiment: Biodistribution in BALB/c mouse lung at 7 to 8 KBq, iv after 15 mins; format: ADME, organism-based; conditions: in vivo, 0.25 h
Kidney [20] = experiment: Biodistribution in BALB/c mouse kidney at 7 to 8 KBq, iv after 120 mins; format: ADME, organism-based; conditions: in vivo, 2 h
Liver [21] = experiment: Biodistribution in BALB/c mouse liver at 7 to 8 KBq, iv after 60 mins; format: ADME, organism-based; conditions: in vivo, 1 h
Mus musculus [22] = experiment: Biodistribution in BALB/c mouse lower body at 7 to 8 KBq, iv after 15 mins; format: ADME, organism-based; conditions: in vivo, 0.25 h
Thalamus [23] = experiment: Biodistribution in BALB/c mouse thalamus at 7 to 8 KBq, iv after 5 mins; format: ADME, organism-based; conditions: in vivo
Mus musculus [24] = experiment: Biodistribution in BALB/c mouse upper body at 7 to 8 KBq, iv after 15 mins; format: ADME, organism-based; conditions: in vivo, 0.25 h
Heart [25] = experiment: Biodistribution in BALB/c mouse heart at 7 to 8 KBq, iv after 15 mins; format: ADME, organism-based; conditions: in vivo, 0.25 h
Cerebellum [26] = experiment: Biodistribution in BALB/c mouse cerebellum at 7 to 8 KBq, iv after 5 mins; format: ADME, organism-based; conditions: in vivo
Thalamus [27] = experiment: Biodistribution in BALB/c mouse thalamus at 7 to 8 KBq, iv after 60 mins; format: ADME, organism-based; conditions: in vivo, 1 h
Thalamus [28] = experiment: Biodistribution in BALB/c mouse thalamus at 7 to 8 KBq, iv after 15 mins; format: ADME, organism-based; conditions: in vivo, 0.25 h
Pancreas [29] = experiment: Biodistribution in BALB/c mouse pancreas at 7 to 8 KBq, iv after 5 mins; format: ADME, organism-based; conditions: in vivo
Lung [30] = experiment: Biodistribution in BALB/c mouse lung at 7 to 8 KBq, iv after 5 mins; format: ADME, organism-based; conditions: in vivo
Striatum [31] = experiment: Biodistribution in BALB/c mouse striatum at 7 to 8 KBq, iv after 15 mins; format: ADME, organism-based; conditions: in vivo, 0.25 h
Kidney [32] = experiment: Biodistribution in BALB/c mouse kidney at 7 to 8 KBq, iv after 5 mins; format: ADME, organism-based; conditions: in vivo
Thyroid gland [33] = experiment: Biodistribution in BALB/c mouse thyroid at 7 to 8 KBq, iv after 120 mins; format: ADME, organism-based; conditions: in vivo, 2 h
Stomach [34] = experiment: Biodistribution in BALB/c mouse stomach at 7 to 8 KBq, iv after 60 mins; format: ADME, organism-based; conditions: in vivo, 1 h
Intestine [35] = experiment: Biodistribution in BALB/c mouse intestine at 7 to 8 KBq, iv after 60 mins; format: ADME, organism-based; conditions: in vivo, 1 h
Brain = experiment: Biodistribution in BALB/c mouse brain at 7 to 8 KBq, iv after 120 mins; format: ADME, organism-based; conditions: in vivo, 2 h

CN1CCN(C2=Nc3cc([125I])ccc3Nc3ccccc32)CC1 [[125I]I-OZAPINE]
Drug uptake (Pancreas [1]): 0.34 %ID
Drug uptake (Striatum [2]): 2.11 %ID
Drug uptake (Spleen [3]): 0.04 %ID
Drug uptake (Thyroid gland [4]): 0.13 %ID
Drug uptake (Blood): 3.49 %ID
Drug uptake (Stomach [5]): 3.56 %ID
Drug uptake (Pancreas [6]): 0.16 %ID
Drug uptake (Stomach [7]): 1.77 %ID
Drug uptake (Cerebellum [8]): 4.71 %ID
Drug uptake (Intestine [9]): 9.16 %ID
Drug uptake (Spleen [10]): 0.37 %ID
Drug uptake (Liver [11]): 10.38 %ID
Drug uptake (Mus musculus [12]): 5.72 %ID
Drug uptake (Mus musculus [13]): 18.94 %ID
Drug uptake (Hippocampus [14]): 2.52 %ID
Drug uptake (Cerebellum [15]): 0.94 %ID
Drug uptake (Hippocampus [16]): 0.27 %ID
Drug uptake (Medulla): 6.78 %ID
Drug uptake (Mus musculus [17]): 10.24 %ID
Drug uptake (Heart [18]): 0.6 %ID
Drug uptake (Lung [19]): 1.6 %ID
Drug uptake (Kidney [20]): 1.19 %ID
Drug uptake (Liver [21]): 12.03 %ID
Drug uptake (Mus musculus [22]): 15.02 %ID
Drug uptake (Thalamus [23]): 7.82 %ID
Drug uptake (Mus musculus [24]): 17.41 %ID
Drug uptake (Heart [25]): 0.28 %ID
Drug uptake (Cerebellum [26]): 6.16 %ID
Drug uptake (Thalamus [27]): 1.56 %ID
Drug uptake (Thalamus [28]): 6.15 %ID
Drug uptake (Pancreas [29]): 1.41 %ID
Drug uptake (Lung [30]): 4.01 %ID
Drug uptake (Striatum [31]): 6.76 %ID
Drug uptake (Kidney [32]): 5.42 %ID
Drug uptake (Thyroid gland [33]): 1.3 %ID
Drug uptake (Stomach [34]): 7.35 %ID
Drug uptake (Intestine [35]): 35.19 %ID
Drug uptake (Brain): 0.1 %ID
